Laboratory results as given in patent US7491518B2, “Method of elevating yield of oligosaccharides containing α-galactosyl and anti-candida compositions” (Amano Enzyme Inc., priority 2000, dated 2009).

Experiments:
Candida microorganism = conditions: in vitro and in vivo; cited from earlier work
[1] = cited from earlier work
[2] = test system: Candida albicans IFM40009; assay: Persistence of orally administered Candida microorganism in the intestinal tract of mice (viable cell count in cecum and colon); assay type: in vivo; conditions: mouse, 100 mg/animal oral once a day for two weeks, 1 week after forcible administration of Candida suspension
Text: A Candida microorganism was given forcibly via an oral administration to a mouse on diet with the oligosacchride containing α-galactosyl obtained in EXAMPLE 3 to test the persistence of the Candida microorganism in an intestinal tract, whereby assessing the anti-candida effect of the oligosacchride containing α-galactosyl.
(Methods) A test mouse was a 4-week old male mouse of Crj:CD-1 (ICR) line (NIPPON CHARLES RIVER). A preliminary housing was provided to the animal for 1 week while being allowed to access a basal diet and a distilled water ad libitum. The basal diet was a solid chow for mice (MF: ORIENTAL YEAST). After the preliminary housing, the basal diet and the distilled water were given ad libitum continuously, and a control group fed with a sucrose, a positive control group fed with a raffinose, and a treatment group fed with an oligosacchride containing α-galactosyl were provided (5 animals per group) to conduct a forcible oral administration at 100 mg/animal via an oral gavage for two weeks on a once-a-day basis. […]
The viable cell of the Candida microorganism was counted by applying a Candida microorganism suspension diluted appropriately with a physiological saline onto a Candida GS (EIKEN KAGAKU) plate medium and incubating at 37° C. for 42 to 48 hours followed by counting the colonies formed. […]

[3] = biological target: toxin produced by Clostridium difficile (Clostridioides difficile, UniProt P16154); conditions: cited from earlier work
pathogenic E.coli 0157 = conditions: cited from earlier work

Compound: OC[C@H]1O[C@H](OC[C@H]2O[C@H](O[C@]3(CO)O[C@H](CO)[C@@H](O)[C@@H]3O)[C@H](O)[C@@H](O)[C@@H]2O)[C@H](O)[C@@H](O)[C@H]1O [raffinose]
- effects on a Candida microorganism (Candida microorganism): inhibitory and eradicative effects
- effect on atopic dermatitis ([1]; in vivo): exerted an effect
- side effects observed with an antifungal agent (transient exacerbation of rash, digestive organ signs) ([1]; oral administration): does not cause side effects
- viable cell count of Candida microorganism in the cecum [2]: not changed
- viable cell count of Candida microorganism in the colon ([2]; compared with sucrose control group): lower

Compound: OC[C@H]1O[C@H](O[C@@H]2[C@@H](O)[C@@H](O)O[C@H](CO)[C@@H]2O)[C@H](O)[C@@H](O)[C@H]1O [α-1,3-galactobiose]
- effect on toxin produced by Clostridium difficile [3]: neutralizing effect

Compound: OC[C@H]1O[C@H](O[C@@H]2[C@H](O)[C@@H](O)C(O)O[C@@H]2CO)[C@H](O)[C@@H](O)[C@H]1O (stereo partly drawn) [α-1,4 galactobiose]
- effect on pathogenic E.coli 0157 (pathogenic E.coli 0157): inhibitory and therapeutic effect
